Measured values reported in PMC13197777, “Distinct 2-phenylimidazo[1,2-a]pyridine derivatives that inhibit breast cancer cell proliferation identified as AHR ligands” (iScience, 2026).
≈ marks a conversion by molar mass, not a printed value. Like-named read-outs stand apart in the source and are kept apart here.

How the values were obtained:
ERα full-length = biological target: T1, ERα full-length (Homo sapiens, UniProt P03372); experiment: PolarScreen ERα Competitor Assay (fluorescence polarization); format: binding
T1 construct: 34 nM ERα full-length and 1.4 nM Fluormone EL Red were incubated; purchased ThermoFisher A15884
T1 sequence (P03372 1-595): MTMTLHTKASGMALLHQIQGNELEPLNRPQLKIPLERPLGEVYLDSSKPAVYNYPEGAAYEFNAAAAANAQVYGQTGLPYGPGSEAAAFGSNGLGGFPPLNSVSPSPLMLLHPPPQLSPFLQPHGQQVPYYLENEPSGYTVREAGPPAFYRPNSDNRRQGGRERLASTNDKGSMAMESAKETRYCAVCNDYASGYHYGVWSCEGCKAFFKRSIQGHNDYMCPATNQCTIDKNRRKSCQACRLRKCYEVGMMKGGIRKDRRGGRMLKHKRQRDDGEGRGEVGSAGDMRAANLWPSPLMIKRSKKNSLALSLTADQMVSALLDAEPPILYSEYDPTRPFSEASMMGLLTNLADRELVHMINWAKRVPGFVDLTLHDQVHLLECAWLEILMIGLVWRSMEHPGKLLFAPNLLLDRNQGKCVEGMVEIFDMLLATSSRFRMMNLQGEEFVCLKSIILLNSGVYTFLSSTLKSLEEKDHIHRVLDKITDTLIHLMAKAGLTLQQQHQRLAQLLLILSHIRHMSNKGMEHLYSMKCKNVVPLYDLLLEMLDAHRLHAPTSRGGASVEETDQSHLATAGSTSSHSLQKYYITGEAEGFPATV
Procedure: The PolarScreen Estrogen Receptor-Alpha Competitor Assay, Red (ThermoFisher, A15884) was used to determine if the X compounds bind to ERα. The assay was performed according to the manufacturer’s protocol.

[1] = tested on: ERα LBD or full-length ERα; experiment: Nuclear receptor activity profiling (NAPing), E2-induced ERα-coregulator interaction; format: biochemical; conditions: E2 −8.5 logM, compound −5.5 logM, LBD or full-length ER
Procedure: Preparation of assay mixes with ERα recombinant ligand binding domain (LBD) and full-length ERα in MCF-7 extracts and measurement of coregulator recruitment on the NAPing platform (PML, Oss, The Netherlands) was performed as described previously.[68]^,[69] […] Unbound ERα and antibodies were removed by washing. Residual ERα binding to each coregulator motifs was recorded on tiff images and quantified using an R-based analysis software package (PML, Oss, The Netherlands).

MCF-7 luc Y537S = experiment: Clonogenic assay (clonal expansion), MCF-7 cells with Y537S ER mutation; format: cell-based; conditions: Homo sapiens, MCF7, 336 h
Procedure: (§1) Cells were seeded at a density of 1–2×10^3 cells/well in a 6-well plate and treated with increasing concentrations of the X compounds for 14–21 days. Medium and compounds were renewed every 7 days. The experiments were terminated by fixing the cells with methanol and the colonies formed were visualized after staining with 0.5% crystal violet (w/v) in 20% methanol (v/v). Plates were photographed and the area covered by the colonies was calculated using the ColonyArea Plugin for Fiji (RRID:SCR_003070).[20]

MCF-7 luc D538G = experiment: Clonogenic assay (clonal expansion), MCF-7 cells with D538G ER mutation; format: cell-based; conditions: Homo sapiens, MCF7, 336 h
Procedure: as §1

MCF-7 cells = experiment: Clonogenic assay in MCF-7 cells with AHR antagonist CH223191; format: cell-based, human; conditions: MCF-7, 10 nM compound, 1 μM CH223191, 14 days
Procedure: as §1

[2] = tested on: MCF-7 luc D538G and MCF-7 luc Y537S; experiment: Clonogenic assay, cells expressing the two mutant ERs (range over both); format: cell-based; conditions: Homo sapiens, MCF7, read-out: IC50 clonal expansion in cells expressing the two mutant ERs
Procedure: as §1

CTC-ITB-01 cells = experiment: cells; format: cell-based; conditions: Homo sapiens, read-out: LC50
Procedure: LC50 values were measured using the CyQUANT NF Cell Proliferation Assay Kit (Thermo Fisher). CTC-ITB-01 cells were plated at a density of 2x10^3 cells/well in 96-well plates and treated the following day with serial dilutions of the test compounds. After incubation for the indicated time, cells were stained with CyQUANT dye according to the manufacturer’s protocol and incubated at 37°C for 30 min. Fluorescence was measured using a Tecan Infinite M Nano+ (excitation: 485 nm; emission: 530 nm). For the calculation of the LC50 the fluorescence was plotted against the Log10 of the inhibitor concentration in nM as x values and the LC50 values were calculated with 95% confidence intervals (n = 4).

PDxO#28 = experiment: Organoid viability, CellTiter-Glo 3D; format: cell-based, human; conditions: PDxO#28 in 3D Matrigel, 7 days, increasing doses; same results in PDO#268 and PDO#480
Source text: Organoids were generated from patients’ samples and from patient-derived xenograft (PDX) tumors, as previously described.[25] PDX were derived from BCRO#28, an ER^+ breast cancer sample collected from a treatment naive patient. PDO#268 was derived from BCRO#268, an ER^+ breast cancer sample collected from treatment naive patient. PDO#480 was derived from BCRO#480, an ER^+ breast cancer sample collected from a patient subjected to chemotherapy in neo-adjuvant setting. Briefly, tumors freshly explanted from mice were mechanically shredded, digested with collagenase (Merck) and filtered through a 100 μm strainer. Digested material (isolated cells and small cell clusters) was centrifuged and embedded in 3D-matrix drops (reduced growth factor Basement Membrane Extract, BME, R&D systems), then overlaid with breast cancer organoid medium.[25] For 3D survival curves under treatment, organoids were embedded in BME drops and, after 24 - 48 h, drugs were added. Fresh drug-containing medium was replaced on day 4. On day 7 of treatment, CellTiter-Glo 3D Cell Viability Assay (Promega) was added and luminescent signal from viable organoids was recorded on Infinite M1000 Pro instrument (Tecan).

MCF-7 luc = experiment: Clonogenic assay (clonal expansion), MCF-7 cells expressing wild-type ER; format: cell-based; conditions: Homo sapiens, MCF7, 336 h
Procedure: as §1

[3] = parameters: method as in earlier work; conditions: IUPAC Digitized pKa Dataset ref 30; cited from earlier work
[4] = Thermodynamic solubility, shake-flask method; format: physicochemical; conditions: HEPES buffer 0.1 M pH 7.4, 21 °C
Procedure: Thermodynamic solubility was determined using the classical shake-flask method. The solid compound (4 mg) was suspended in 1 mL HEPES buffer (0.1 M, pH 7.4) and constantly stirred at 21 °C for 24 h. […] The injection volume for all analyses was 50 μL and the flow rate was kept at 1 mL/min during the analysis. A mobile phase gradient method was applied as a method with 5% solvent B to 99% solvent B in 5 min, followed by 3 min of elution at 99% solvent B.
Calibration curve was generated from a serial dilution of the respective analyte in DMSO at 2.5, 1.25, 0.625, 0.313, 0.156, 0.078, 0.039 mM starting from a 10 mM DMSO stock solution. Subsequently, 2 μL of each dilution was added to 198 μL of a buffer (HEPES, 0.1 M, pH 7.4)/acetonitrile mixture in a 3:2 ratio yielding final dilutions of 25, 12.5, 6.25, 3.125, 1.562, 0.781, 0.391 μM. These were then subjected to HPLC analysis as described above.
Using the results from the linear regression of the internal calibration measurement points (Figure S5) and the mean AUC values from the saturated aqueous solutions, the concentration C of the analytes in the saturated aqueous solution, expressed in μM, were calculated using Equation 2:(Equation 1) AUC=Slope·C+YIntercept (Equation 2) C=AUC−YIntercept/Slope

ERα in MCF-7 cells = experiment: Immunoblot of ERα in MCF-7 cells; format: cell-based, human; conditions: MCF-7, 48 h, increasing concentrations up to 1 μM
Procedure: To determine the relative expression of proteins by Western blotting, cells were first washed with ice-cold phosphate buffered saline (PBS). Subsequently, they were lysed in ice-cold NP40 lysis buffer (1%NP-40, 50 mM Tris-HCl, pH 8.0, 150 mM NaCl, 5 mM Ethylenediaminetetraacetic acid [EDTA], 1 mM PMSF) on ice. DNA was degraded by sonification (five pulses at 50 amplitudes). Protein concentration was determined, and equal amounts of protein were separated on a 9% SDS-PAGE gel. The proteins were transferred onto nitrocellulose membrane by a standard Western blotting protocol and the membranes were incubated with the following antibodies: ERα (Santa Cruz Biotechnology, sc-8002, RRID: AB_627558) and PCNA (Santa Cruz Biotechnology, sc-56, RRID: AB_628110), followed by incubation with HRP labeled Goat anti-mouse Immunoglobulins (DAKO, P0447, RRID: AB_2617137).

[5] = tested on: AHR target genes CYP1A1, CYP1B1, ALDH3A1; conditions: human, 16 h, 1 µM
[6] = Compound stability in aqueous environment; format: physicochemical; conditions: 12.5 μM, HEPES pH 7.4/acetonitrile 3:2, 1% DMSO, 21 °C, 5 days
Procedure: The stability of the compounds was evaluated at a concentration of 12.5 μM in a 3:2 mixture of buffer (HEPES, 0.1 M, pH 7.4) and acetonitrile, with 1% DMSO. Acetonitrile was added because the concentration of 12.5 μM exceeded the thermodynamic solubility of the compounds in the buffer. This addition thereby prevented the formation of precipitates and a gradual decrease in compound concentration during the measurement. The resulting solution was stirred at 21 °C in a sealed vial (crimp neck vials, 5 mL, clear (Cat. No. 548-0611A) in combination with natural rubber septa (548-0565A) and aluminum crimp caps (548-3278A), VWR International) for 5 days. […] The AUC measured was subsequently plotted as a function of the incubation time (Figure S3). No signs of decomposition could be observed over the given time.

[7] = HEPES buffer, 21 °C, pH 7.4, aqueous buffer, thermodynamic from solid

C[C@]12CC[C@@H]3c4ccc(O)cc4C[C@@H](CCCCCCCCC[S+]([O-])CCCC(F)(F)C(F)(F)F)[C@H]3[C@@H]1CC[C@@H]2O (some centres unmarked) [Fulvestrant, reference compound]
displacement of the Fluormone tracer from ERα (ERα full-length): efficiently displaced the Fluormone tracer
disruption of coactivator peptide binding to E2-liganded ERα [1]: clearly disrupted binding of the coactivator peptides
IC50 (MCF-7 luc Y537S; read-out: IC50 clonal expansion, Figure 1B, MCF-7 luc Y537S, absence of E2, 14 days): 6.6 nM
IC50 (MCF-7 luc Y537S; read-out: IC50 clonal expansion, Figure 1C, MCF-7 luc Y537S + 10 nM E2, 14 days): 150 nM
IC50 (MCF-7 luc Y537S; read-out: IC50 clonal expansion, Figure 1D, MCF-7 luc Y537S, absence of E2, 14 days): 7.47 nM
IC50 (MCF-7 luc Y537S; read-out: IC50 clonal expansion, Figure 1E, MCF-7 luc Y537S + 10 nM E2, 14 days): 147 nM
IC50 (MCF-7 luc D538G; read-out: IC50 clonal expansion, Figure 1B, MCF-7 luc D538G, absence of E2, 14 days): 9.57 nM
IC50 (MCF-7 luc D538G; read-out: IC50 clonal expansion, Figure 1C, MCF-7 luc D538G + 10 nM E2, 14 days): 1910 nM
IC50 (MCF-7 luc D538G; read-out: IC50 clonal expansion, Figure 1D, MCF-7 luc D538G, absence of E2, 14 days): 12.2 nM
IC50 (MCF-7 luc D538G; read-out: IC50 clonal expansion, Figure 1E, MCF-7 luc D538G + 10 nM E2, 14 days): 1910 nM
inhibition of colony expansion in the presence of AHR antagonist CH223191 (MCF-7 cells): inhibited colony growth in the presence of CH223191
IC50 [2]: 6.6 to 9.57 nM
CC50 (CTC-ITB-01 cells; 48 h): 8.8 µM
CC50 (CTC-ITB-01 cells; 120 h): 6.3 µM
organoid viability (survival) (PDxO#28): modest
IC50 (MCF-7 luc; Figure 1B, MCF-7 luc, absence of E2, 14 days): 0.14 nM
IC50 (MCF-7 luc; Figure 1C, MCF-7 luc + 10 nM E2, 14 days): 69.2 nM
IC50 (MCF-7 luc; Figure 1D, MCF-7 luc, absence of E2, 14 days): 0.12 nM
IC50 (MCF-7 luc; Figure 1E, MCF-7 luc + 10 nM E2, 14 days): 78.1 nM

c1ccn2ccnc2c1 [Imidazo(1,2-a)pyridine]
experimental pKa [3]: 6.79

FC(F)(F)c1cc(Cl)c2nc(-c3ccccc3)cn2c1 [X15696]
solubility thermodynamic at 24 h [4]: 5 µM (≈ 1.48 µg/mL)
solubility thermodynamic at 24 h [4, 7]: 5.11 µM (≈ 1.52 µg/mL)
ERα destabilization (immunoblot) (ERα in MCF-7 cells): most proficient in destabilizing ERα
inhibition of colony expansion in the presence of AHR antagonist CH223191 (MCF-7 cells): clearly abrogated by the AHR antagonist CH223191
expression of AHR target genes (RT-PCR) [5]: enhanced the transcriptional activity of the AHR target genes in both MCF-7 and T47D cells
stability in aqueous environment [6]: no obvious decomposition detected

Fc1ccccc1-c1cn2cc(C(F)(F)F)cc(Cl)c2n1 [X19720]
solubility thermodynamic at 24 h [4]: 1.4 µM (≈ 0.441 µg/mL)
solubility thermodynamic at 24 h [4, 7]: 1.35 µM (≈ 0.425 µg/mL)
ERα destabilization (immunoblot) (ERα in MCF-7 cells): most proficient in destabilizing ERα
inhibition of colony expansion in the presence of AHR antagonist CH223191 (MCF-7 cells): clearly abrogated by the AHR antagonist CH223191
expression of AHR target genes (RT-PCR) [5]: enhanced the transcriptional activity of the AHR target genes in both MCF-7 and T47D cells
stability in aqueous environment [6]: no obvious decomposition detected
